Experimental findings from patent publication EP4596561A1, “PHOSPHORUS-CONTAINING COMPOUND, PHARMACEUTICAL COMPOSITION AND USE THEREOF” (Suzhou Genhouse Bio Co., Ltd., priority 2022, dated 2024) are described below.

Like-named read-outs stand apart in the source and are kept apart here.

The nature of data set [1]: Stability test in liver microsomes. It is filed as in vitro ADME, SD rat. The conditions noted are these: rat liver microsomes, 0.5 mg/mL, 1.0 µM substrate. As for the experimental part: (§1) Phase I metabolic stability of the test compounds in liver microsomes of CD-1 mice, Sprague-Dawley rats, and humans was assessed.
(§2) The animal and human liver microsomes used in the test system were purchased from Xenotech, Corning, or other qualified suppliers and stored in a freezer at a temperature below -60 °C prior to use. The information of the animal and human liver microsomes used was as follows:
(§3) The test samples and the reference compounds were separately incubated with animal and human liver microsomes at 37±1 °C for a period of incubation time of up to 60 min. The samples were taken out at the indicated time points, and the reaction was stopped with acetonitrile or another organic solvent containing an internal standard. After centrifugation, the resulting supernatants were assayed by the liquid chromatography-tandem mass spectrometry (LC-MS/MS) method.
(§4) Microsomes of each species were diluted into a 2× working solution with a 100 mM potassium phosphate buffer. […]
(§5) Incubation was performed in a 96-well plate. Eight incubation plates were prepared and designated T0, T5, T15, T30, T45, T60, Blank60, and NCF60, respectively. The first 6 plates corresponded to reaction time points of 0 min, 5 min, 15 min, 30 min, 45 min, and 60 min, respectively. No test sample or reference compound was added to the Blank60 plate, and samples were taken after 60 min of incubation. In the NCF60 plate, incubation was performed for 60 min using the potassium phosphate buffer instead of the NADPH regeneration system solution. Three replicates were made for samples in all conditions.
(§6) The microsomes and the test sample or reference compound were mixed, and then the incubation plates Blank60, T5, T15, T30, T45, and T60 except for T0 and NCF60 were placed in a 37 °C water bath for pre-incubation for about 10 min. In the incubation plate T0, a stop solution was first added, followed by the addition of the NADPH regeneration system working solution, and 98 µL of the potassium phosphate buffer was added to each sample well of the incubation plate NCF60 to initiate the reaction. After the pre-incubation of the incubation plates Blank60, T5, T15, T30, T45, and T60 was completed, 98 µL of the NADPH regeneration system working solution was added to each sample well to initiate the reaction. The reaction temperature was 37±1 °C, the final volume of the reaction was 200 µL, and the reaction system included 0.5 mg/mL microsomes, 1.0 µM substrate, 1 mM NADP, 6 mM ISO, and 1 unit/mL IDH.
(§7) At 5 min, 15 min, 30 min, 45 min, and 60 min, a cold stop solution containing an internal standard was added to the reaction plate to stop the reaction.
(§8) All the reaction plates after the reaction was stopped were shaken well and centrifuged at 3220× g at 4 °C for 20 min. After the supernatant was diluted at a certain ratio, LC-MS/MS analysis was performed.
(§9) Sample analysis was performed by the liquid chromatography-tandem mass spectrometry (LC-MS/MS) method without standard curves and quality control samples. Semi-quantitative determination was performed according to the ratio of the analyte peak area to the internal standard peak area. The retention times of the analyte and internal standard, the chromatogram acquisition, and chromatogram integration were processed using the Analyst software (Sciex, Framingham, Massachusetts, USA).
(§10) According to the well stir model, the hepatic intrinsic clearance and hepatic clearance can be converted through the following formula. CL(liver) = (CLint(liver)×Qh)/(CLint(liver)+Qh) [formula]
(In general: Liver microsomes are vesicles of endoplasmic reticulum, rich in cytochrome P450 enzymes.)

The nature of data set [2]: Pharmacokinetic test in mice (low dose). Type of data set: in vivo, Balb/c mice. The conditions noted are these: mouse, mice; for AUC(0-t): read-out: AUClast; for clearance: read-out: Cl (converted); for half-life: read-out: T1/2 (converted); for bioavailability: PO 10 mg/kg vs IV 2 mg/kg, read-out: F%; for Cmax: read-out: Cmax. The procedure:
The compounds of the present disclosure were administered to Balb/c mice by single intravenous injection and oral gavage, and the plasma of the mice at each time point was collected. The concentration of the compounds to be tested in BALB/C plasma was detected using the LC-MS/MS analysis method, and pharmacokinetic analysis was performed.
The mixture was vortexed, shaken, and ultrasonicated. The remaining volume of 25% sulfobutylether-β-cyclodextrin (sterilized) was added to prepare the final concentration solution or suspension.
Intravenous injection formulations will be directly administered in animal experiments without filtration. The IV drug preparation vials were disinfected in an infrared sterilization cabinet one day in advance.
Intravenous injection: Administration was performed via the tail vein. After the needle was inserted, the syringe was slowly […].
Gavage: Gavage needle and syringe of an appropriate type were selected. The gavage needle was inserted from the root of the tongue into the esophagus until it reached near the cardia of the stomach, then the drug formulation was injected, and the gavage needle was withdrawn. When disposable plastic gavage needles were used, one needle was used for each group.
At each time point, 60 µL of whole blood was collected from the submandibular vein or tail vein (except for the IV group). The blood sample was added to a pre-cooled anticoagulant blood collection tube containing anticoagulant EDTA-K2 (1 µL, 15% EDTA-K2 solution), placed on wet ice, and centrifuged (3000 g, 4 °C, 10 min) within 1 h. The plasma was immediately collected after centrifugation, transferred to an EP tube, and stored at -90 °C to -60 °C.
Plasma concentration detection: A developed LC-MS/MS method was used to detect the compounds in plasma.
The plasma concentration-time data were analyzed using a non-compartmental model in the Phoenix® WinNonlin® (Version 8.2, Pharsight, Mountain View, CA).

A short description of data set [3]: Stability test in liver microsomes. Particulars: Human liver microsomes, 0.5 mg/mL, 1.0 µM substrate. Type of data set: in vitro ADME. The procedure: as §1, §2, §3, §4, §5, §6, §7, §8, §9, §10
A short description of data set [4]: Stability test in liver microsomes. Type of data set: in vitro ADME, CD-1 mouse. The conditions noted are these: mouse liver microsomes, 0.5 mg/mL, 1.0 µM substrate. As for the experimental part:
as §1, §2, §3, §4, §5, §6, §7, §8, §9, §10

For data set [5], the system named is YAP-TEAD transcription complex. Briefly: YAP-TEAD reporter gene assay (dual luciferase, stably transfected 293T cells). Particulars: Homo sapiens, HEK-293T. It is filed as cell-based. The procedure: YAP-TEAD reporter gene The YAP-TEAD reporter gene assay was performed as follows. Firstly, the 8xGTIIC promoter sequence ([…] GTACTGTTGGTAAA) was constructed into a pGL4.20(luc2-Puro) plasmid, and the TK promoter ([…]) unrelated to the hippo pathway was constructed into a pGL4.78(hRlucCP/Hygro) plasmid, thereby constructing stably transfected 293T cells that can stably and continuously express the transcriptional activity of the YAP-TEAD transcription complex. After selection and identification of individual clones, the clones were grown and maintained in a DMEM medium containing 10% fetal bovine serum, penicillin-streptomycin solution, 1 µg/mL puromycin, and 150 µg/mL hygromycin. To perform reporter gene assays with the compounds to be tested, the well-growing cells described above were plated in a 384-well plate at a cell density of 3000 cells per well, with 90 µL per well. The periphery was sealed with an appropriate amount of PBS to prevent evaporation of water from the peripheral wells. Administration was performed on the next day after the cell plating. The test compounds were added at different concentration gradients, and three replicate wells were set for each concentration point. The compound concentration started at 5 µM and was diluted seven times with a 5-fold gradient. A corresponding negative control group treated with DMSO was also set up. After 24 h of drug treatment, the detection reagents were prepared first. The Dual-Lumi™ Firefly luciferase detection reagent and Dual-Lumi™ Renilla luciferase detection buffer were dissolved and brought to room temperature. […]. According to the amount of 100 µL of Dual-Lumi™ Renilla luciferase detection working solution required for the detection of each sample, an appropriate amount of Dual-Lumi™ Renilla luciferase detection working solution was prepared. […]. The cell culture plate was taken out and allowed to equilibrate at room temperature for 10 min (usually no more than 30 min). Then, 100 µL of Dual-Lumi™ Firefly luciferase detection reagent was added to each well of a 96-well plate (25 µL per well for the 384-well plate), and the mixture was mixed well. The mixture was then incubated at room temperature (about 25 °C) for 10 min to stabilize the luminescent signal, and then chemiluminescence was detected using a multimode microplate reader with a chemiluminescence detection function. Subsequently, the detection of Renilla luciferase began. Firstly, 100 µL of Dual-Lumi™ Renilla luciferase detection working solution was added to each well of a […] (25 µL per well for the 384-well plate), and the mixture was mixed well. The mixture was then incubated at room temperature (about 25 °C) for 10 min to stabilize the luminescent signal. Finally, chemiluminescence was detected using a multimode microplate reader with a chemiluminescence detection function. The obtained data were analyzed using GraphPad Prism 7.0 software. A sigmoidal dose-survival rate curve was plotted using a non-linear regression model, and the IC50 values were calculated.
(In general: Reporter assays use an easily measured gene product as a stand-in for the process of interest.)

A further data set concerns NCI-H28 (NF2 wide-type). Briefly: Inhibition of cell proliferation (CellTiter-Lumi). It is filed as cell-based. The conditions noted are these: Homo sapiens, 72 h + another 72 h treatment. The procedure: (§11) NCI-H2052 (NF2 mutant), NCI-H226 (NF2 mutant), NCI-H2452 (NF2 wide-type), NCI-H28 (NF2 wide-type), and MSTO-211H (NF2 wide-type) cells were cultured in RPMI 1640 complete media.
(§12) The normally growing cells described above were digested with a trypsin cell-digesting solution, centrifuged, counted, and then plated in a 96-well plate at a density of 1000 cells per well. Administration was performed 24 h after the cell plating. Inhibitors at different concentration gradients were added at 10 µL per well, and three replicate wells were set for each concentration point. The starting concentration was 20 µM and diluted 8 times with a 4-fold gradient. A corresponding negative control group treated with 0.1% DMSO was also set up. After 72 h of drug treatment, the cell culture plate to be tested was taken out of the incubator. The culture medium in the 96-well plate was pipetted, and 190 µL of fresh RPMI 1640 complete medium was added. Another administration was performed, and the cells were cultured for another 72 h. The 96-well plate was taken out and allowed to equilibrate at room temperature for 10 min. […] After shaking for two minutes, the mixture was reacted at room temperature for 10 min. Then, 150 µL of liquid was pipetted from the transparent 96-well plate and transferred to a white 96-well plate for chemiluminescence reading. The background value was subtracted from the value for each well to calculate the cell survival rate. Survival rate (%) = […]. Sample is the chemiluminescence of the drug-treated group, and Vehicle is the […] of the DMSO control group. A sigmoidal dose-survival rate curve was plotted using a non-linear regression model in the GraphPad Prism 7.0 software, and the IC50 values or GI50 values were calculated.

Data set [6] deals with NCI-H2452 (NF2 wide-type). Briefly: Inhibition of cell proliferation (CellTiter-Lumi). The conditions noted are these: Homo sapiens, 72 h + another 72 h treatment. It is filed as cell-based. As for the experimental part:
as §11, §12

A short description of another data set: in vivo. Particulars: mouse, plasma, po, 100 mg/kg.
A short description of data set [7]: Saturated solubility in FaSSIF solution. Type of data set: physicochemical. Particulars: room temperature, stirred overnight. The procedure:
Efficacy Experimental Example 9: Test of Saturated Solubility of Samples in FaSSIF Solution
About 0.21 g of sodium hydroxide, about 2.24 g of sodium dihydrogen phosphate dihydrate, and 3.09 g of sodium chloride were weighed out and dissolved in 500 mL of water, and after dissolution, the pH was adjusted to 6.5 with 1 N sodium hydroxide or 1 N hydrochloric acid.
112 mg of FaSSIF solid was weighed out and placed in a 50 mL volumetric flask, and the buffer described above was added for dissolution. The resulting solution was diluted to volume, mixed well, and left to stand at room temperature for 2 h or more.
Test sample: About 1 mg of the test sample was taken, and 1 mL of FaSSIF solution was added. The mixture was stirred at room temperature overnight and centrifuged, and the supernatant was collected and injected for analysis.
Reference sample solution: About 1.5 mg of the test sample was precisely weighed out and placed in a 50 mL volumetric flask, and DMF was added for dissolution. The resulting solution was diluted to volume and mixed well.
The peak of the main component of the reference sample and the peak of the test sample with the same retention time were integrated, and the concentration thereof in the FaSSIF solution was calculated according to the external standard method.

Description for in vivo: After adding 5% DMSO, the mixture was vortexed. 15% HS15 was then added, and the mixture was vortexed again. Finally, a 10% aqueous cyclodextrin solution was added, and the resulting mixture was vortexed to prepare the final concentration solution or suspension.

Compound `Cn1cc2c3cc(P(C)(C)=O)ccc3n(-c3ccc(C(F)(F)F)cc3)c2n1` [Example 16] returned a half-life at 1 µM in data set [1] greater than 2.42 h. In [2] (in vivo, IV 2 mg/kg), the MRT is 3.6 h, the AUC(0-t) amounted to 5.44 µM·h, the clearance was 0.8 L/h/kg and the half-life was 2.7 h. In addition, in data set [2] (in vivo, PO 10 mg/kg), the MRT came to 5.3 h, the AUC(0-t) worked out at 63.5 µM·h, the Cmax amounted to 7.17 µM and the half-life was 3.1 h. For the same compound, the bioavailability in data set [2] (in vivo) was 206%. The compound further registered a half-life at 1 µM in [3] greater than 2.42 h. The half-life at 1 µM in data set [4] was greater than 2.42 h. Further, the IC50 in data set [5] (24 h) worked out at 0.0318 µM.
Take `Cc1cc(Oc2ccc(C(F)(F)F)cc2)c2ccc(P(C)(C)=O)cc2c1` [Example 29]: the IC50 in the data set on NCI-H28 (NF2 wide-type) is greater than 1.25 µM; in data set [6] it was greater than 1.25 µM; in data set [5] (293T reporter cells, 24 h of drug treatment, read-out: IC50), 0.00465 µM. Besides, the AUC(0-t) stood at 50.8 µM·h in data set [2] (plasma, IV 2 mg/kg); 251 µM·h in [2] (plasma, PO 10 mg/kg); 2160 µM·h in “in vivo”. Further, in [2] (plasma, IV 2 mg/kg), the clearance is 0.024 L/h/kg. The half-life in data set [2] (plasma, IV 2 mg/kg) was 63.5 h; in [2] (plasma, PO 10 mg/kg), 17 h. For the same compound, the bioavailability in data set [2] (plasma) amounted to 99%. For the same compound, the Cmax in [2] (plasma, PO 10 mg/kg) was 13.3 µM. In addition, in data set [7], the “FaSSIF(pH = 6.5)” value came to 223.4 ug/mL.

For orientation: MRT means a mean duration of stay, worked out from the concentration-time curve. Broadly, the Cmax is the highest concentration seen after dosing. What is called IC50 is the concentration at which inhibition is half-maximal.
